According to the NIST ThermoML archive (doi:10.1021/je0500633):
Numbers after ± are expanded uncertainties.

Assays:
[1] = xn = mol fraction of the nth substance listed; details: 101.33 kPa, Liquid; for viscosity: Falling or rolling sphere viscometry
[2] = 101.33 kPa, Liquid; for viscosity: Falling or rolling sphere viscometry

CO [methanol] + CCOC(=O)C(C)CC
[1], x2 = 0
Details	mass density [kg/m3]	viscosity [mPa·s]
293.15 K	791.08 ± 0.63	0.577 ± 0.005
303.15 K	781.95 ± 0.64	0.512 ± 0.005
313.15 K	772.01 ± 0.65	0.447 ± 0.004

CCOC(=O)C(C)CC (configuration not stated) [ethyl 2-methylbutanoate] + CCCO
[1], x1 = 1
Details	mass density [kg/m3]	viscosity [mPa·s]
293.15 K	869.73 ± 0.57	0.831 ± 0.008
303.15 K	861.48 ± 0.58	0.723 ± 0.007
313.15 K	853.41 ± 0.58	0.635 ± 0.006

CO [methanol]
[2]
Details	mass density [kg/m3]	viscosity [mPa·s]
293.15 K	791.08 ± 0.63	0.577 ± 0.005
303.15 K	781.95 ± 0.64	0.512 ± 0.005
313.15 K	772.01 ± 0.65	0.447 ± 0.004

CCCO [propan-1-ol] + CCCCCC(=O)OCC
[1], x2 = 0
Details	mass density [kg/m3]	viscosity [mPa·s]
293.15 K	803.64 ± 0.61	2.188 ± 0.021
303.15 K	795.48 ± 0.62	1.713 ± 0.016
313.15 K	787.02 ± 0.63	1.378 ± 0.013

CO [methanol] + CCCCCC(=O)OCC
[1], x2 = 0
Details	mass density [kg/m3]	viscosity [mPa·s]
293.15 K	791.08 ± 0.63	0.577 ± 0.005
303.15 K	781.95 ± 0.64	0.512 ± 0.005
313.15 K	772.01 ± 0.65	0.447 ± 0.004

CCCO [propan-1-ol]
[2]
Details	mass density [kg/m3]	viscosity [mPa·s]
293.15 K	803.64 ± 0.61	2.188 ± 0.021
303.15 K	795.48 ± 0.62	1.713 ± 0.016
313.15 K	787.02 ± 0.63	1.378 ± 0.013

CCCCCC(=O)OCC [ethyl hexanoate] + CCCO
[1], x1 = 1
Details	mass density [kg/m3]	viscosity [mPa·s]
293.15 K	879.01 ± 0.58	0.816 ± 0.008
303.15 K	869.31 ± 0.57	0.704 ± 0.007
313.15 K	863.28 ± 0.56	0.614 ± 0.006

CCO [ethanol]
[2]
Details	mass density [kg/m3]	viscosity [mPa·s]
293.15 K	788.24 ± 0.62	1.16 ± 0.011
303.15 K	780.73 ± 0.63	0.968 ± 0.009
313.15 K	771.98 ± 0.64	0.81 ± 0.008

CCOC(=O)C(C)CC (configuration not stated) [ethyl 2-methylbutanoate]
[2]
Details	mass density [kg/m3]	viscosity [mPa·s]
293.15 K	869.73 ± 0.57	0.831 ± 0.008
303.15 K	861.48 ± 0.58	0.723 ± 0.007
313.15 K	853.41 ± 0.58	0.635 ± 0.006

CCO [ethanol] + CCOC(=O)C(C)CC
[1], x2 = 0
Details	mass density [kg/m3]	viscosity [mPa·s]
293.15 K	788.24 ± 0.62	1.16 ± 0.011
303.15 K	780.73 ± 0.63	0.968 ± 0.009
313.15 K	771.98 ± 0.64	0.81 ± 0.008

CCCO [propan-1-ol] + CCOC(=O)C(C)CC
[1], x2 = 0
Details	mass density [kg/m3]	viscosity [mPa·s]
293.15 K	803.64 ± 0.61	2.188 ± 0.021
303.15 K	795.48 ± 0.62	1.713 ± 0.016
313.15 K	787.02 ± 0.63	1.378 ± 0.013

CCO [ethanol] + CCCCCC(=O)OCC
[1], x2 = 0
Details	mass density [kg/m3]	viscosity [mPa·s]
293.15 K	788.24 ± 0.62	1.16 ± 0.011
303.15 K	780.73 ± 0.63	0.968 ± 0.009
313.15 K	771.98 ± 0.64	0.81 ± 0.008

CCOC(=O)C(C)CC (configuration not stated) [ethyl 2-methylbutanoate] + CO
[1], x1 = 1
Details	mass density [kg/m3]	viscosity [mPa·s]
293.15 K	869.73 ± 0.57	0.831 ± 0.008
303.15 K	861.48 ± 0.58	0.723 ± 0.007
313.15 K	853.41 ± 0.58	0.635 ± 0.006

CCCCCC(=O)OCC [ethyl hexanoate]
[2]
Details	mass density [kg/m3]	viscosity [mPa·s]
293.15 K	879.01 ± 4	0.816 ± 0.008
303.15 K	869.31 ± 4	0.704 ± 0.007
313.15 K	863.28 ± 4	0.614 ± 0.006

CCOC(=O)C(C)CC (configuration not stated) [ethyl 2-methylbutanoate] + CCO
[1], x1 = 1
Details	mass density [kg/m3]	viscosity [mPa·s]
293.15 K	869.73 ± 0.57	0.831 ± 0.008
303.15 K	861.48 ± 0.58	0.723 ± 0.007
313.15 K	853.41 ± 0.58	0.635 ± 0.006

CCCCCC(=O)OCC [ethyl hexanoate] + CCO
[1], x1 = 1
Details	mass density [kg/m3]	viscosity [mPa·s]
293.15 K	879.01 ± 0.58	0.816 ± 0.008
303.15 K	869.31 ± 0.57	0.704 ± 0.007
313.15 K	863.28 ± 0.56	0.614 ± 0.006

CCCCCC(=O)OCC [ethyl hexanoate] + CO
[1], x1 = 1
Details	mass density [kg/m3]	viscosity [mPa·s]
293.15 K	879.01 ± 0.58	0.816 ± 0.008
303.15 K	869.31 ± 0.57	0.704 ± 0.007
313.15 K	863.28 ± 0.56	0.614 ± 0.006
